Experimental data from US12479803B2, “Antimalarial compounds” (UNIVERSITY OF CENTRAL FLORIDA RESEARCH FOUNDATION, INC., priority 2019, dated 2025).
“Also recorded” adds a separate entry of the source. Like-named read-outs stand apart in the source and are kept apart here. Marks after values point to notes of the source that are not given here.

Experiments:
[1] = system: CQ-resistant (Dd2) strain of P. falciparum; experiment: In vitro antiplasmodial activity, SYBR Green I fluorescence assay, Dd2 strain; type: cell-based, Plasmodium falciparum; settings: for RI, resistance index = [IC50 (Dd2)/IC50 (3D7)]: Dd2 versus 3D7
Procedure: (§1) A set of 104 new styrylquinoline derivatives were synthesized and investigated for in vitro their antimalarial activity. To test antimalarial activities, different dilutions of compounds were added to P. falciparum culture. Following 72 h incubation at 37° C. in an atmosphere containing 5% CO2, the inhibitory property of the compounds were determined by SYBR Green I fluorescence assay. Meanwhile, SARs studies were conducted.
The SAR studies were focused on improving the in vitro activity of 2-arylvinylquinolines against the CQ-resistant Pf Dd2 strain.

[2] = system: malaria infection in mice; settings: cited from earlier work
[3] = system: P. falciparum 3D7 strain (CQ-sensitive); experiment: In vitro antiplasmodium activity, 3D7 strain; type: cell-based, Plasmodium falciparum; settings: Plasmodium falciparum, 3D7; Table 6A, nM; footnote calls it IC50; read-out: Antiplasmodium activity 3D7 (converted)
Procedure: as §1

[4] = mouse liver microsomes; value reported from an initial study; cited from earlier work
HepG2 = experiment: Cytotoxicity assay using MTS in human hepatocytes; type: cell-based; settings: HepG2 versus Dd2
[5] = Cytotoxicity assay using MTS in human hepatocytes; type: cell-based; settings: human, HepG2 cells (human hepatocytes); Table 6B, unit inferred; footnote IC50 (HepG2); read-out: Cytotoxic activity HepG2 (converted)
[6] = In vitro microsomal turnover assay (metabolic stability); settings: mouse; for Clint / % remaining after 60 min: microsomes; for % remaining after 60 min: 1 h
Procedure: Selectivity of compounds were determined by cytoxicity assay using MTS [(3-(4,5-dimethylthiazol-2-yl)-5-(3-carboxymethoxyphenyl)-2-(4-sulfophenyl)-2H-tetrazolium) in human hepatocytes. The metabolic stability of compounds was determined in mouse liver microsomes using an NADPH-regenerating system. The aqueous solubility at pH 7.4 was determined by UV-visible absorption based method. The permeability was assessed by the in vitro double-sink parallel artificial membrane permeability assay 52 that is a model for the passive transport from the gastrointestinal tract into the blood stream.
To assess the metabolic stability, the selected compounds were subjected to an in vitro microsomal turnover assay with mouse liver microsomal preparations. This assay determines the percentage of the parent compound residues after 60 min incubation (Table 7).

[7] = system: early stage (I-III) gametocytes of 3D7 expressing luciferase parasite; experiment: In vitro gametocytocidal activity, early stage; type: cell-based, Plasmodium falciparum; settings: Plasmodium falciparum
Excerpt: (§2) Late stage (IV-V) gametocytes are more refractory to antimalarial drugs than early-stage gametocytes and blood stage parasites, and thus fewer compounds are effective against late stage Pf gametocytes. […] FIGS. 4A and 4B are an examples according to various embodiments illustrating results showing the activity of compound 24 on gametocyte stages, based on an evaluation of the viability of gametocytes after the exposure of compound 24 on early (A) and late (B) gametocytes stages of 3D7 expressing luciferase parasite. In FIGS. 4A and 4B, EC50 data represent the means and SEMs of three experiments. Therefore, arylvinylquinolines represented good leads as new antimalarials with promising dual stage (blood and gametocyte) activity.

[8] = system: P. berghei ANKA strain expressing luciferase; experiment: Survival of P. berghei ANKA infected mice (30 days)
Procedure: In light of in vitro metabolic stability and in vivo efficacy mentioned above, compound 24 s was also administered at 100 and 25 mg/kg to malaria infected mice, and the survival rate was evaluated for 30 days. […] BALB/c females were infected with P. berghei ANKA strain expressing luciferase and treated 4 h post-infection with 25 and 100 mg/kg orally once daily for 4 days.

[9] = system: tightly synchronized Dd2 parasites; experiment: Developmental stage specific action (Giemsa microscopy and flow cytometry); type: cell-based, Plasmodium falciparum; settings: 5×EC50, treated at 6, 18, 30 and 42 h post-invasion
Procedure: Accurate definition of the timing of action of antimalarial agents could give valuable insights into the developmental growth and clinical clearance of the parasite. To further understand the antimalarial activity of arylvinylquinolines, the developmental stage specific action of the most promising compound 24 was determined by both microscopy and flow cytometry analysis. Tightly synchronized cultures were exposed to 5×EC50 concentration of compound 24 at 6, 18, 30 and 42 hours post-invasion (HPI) of the merozoites. Microscopic analysis of Giemsa-stained-thin smears and flow cytometric evaluation were performed at 12 h intervals.
In FIGS. 2A and 2B, the results are representative of three independent biological replicates.

[10] = system: P. berghei ANKA strain expressing luciferase; experiment: Rodent malaria model, Peters' four-day test with IVIS luminescence; type: in vivo; settings: once daily, po
Procedure: Phosphate salts of 24, 29 and 88 were assessed (referred to hereinafter as 24 s, 29 s, and 88 s) in female Swiss Webster mice infected with P. berghei ANKA strain since this strain produced histopathological and immunopathological features which were particularly similar to human cerebral malaria. […] FIG. 6B is an example according to various embodiments illustrating a chart showing the luminescence detected and quantified 7 days after infection of the Swiss Webster females shown in FIG. 6A, using an in vivo imaging system (IVIS). […] As observed from FIG. 6A-B, all these compounds completely cured malaria infection in mice when exposed to 100 mg/kg daily by p.o. administration in a standard Peters' four-day test, and no parasites visible in any of the tested mice were observed. […] Actually, this signal can also arise from dying parasites.

[11] = system: late stage (IV-V) gametocytes of 3D7 expressing luciferase parasite; experiment: In vitro gametocytocidal activity, late stage; type: cell-based, Plasmodium falciparum; settings: Plasmodium falciparum, 3D7
Excerpt: as §2

[12] = system: asynchronous Dd2 parasite cultures; experiment: Kill kinetic experiments (rate of killing, parasitocidal/parasitostatic); type: cell-based, Plasmodium falciparum; settings: 5×EC50 (Atovaquone 6.6 nM) for 6, 12, 24 and 48 h
Procedure: To study whether arylvinylquinolines exerted their antiplasmodial activity through a parasitocidal or parasitostatic mechanism, kill kinetic experiments in Dd2 strain were performed. […] After washing to remove the inhibitors at these time points, the growth of the cultures was continued to be assessed for 96 h.
FIGS. 3A, 3B, 3C, and 3D are examples according to various embodiments illustrating rate of killing and parasitocidal/parasitostatic activity determination of arylvinylquinolines. […] After each exposure, cultures were washed three times in RPMI, resuspended in culture media, and monitored for parasite growth daily for 4 days. DHA and Atovaquone (50 nM and 6.6 nM) were included as fast and slow acting controls, respectively. Parasitemia was determined by microscopy of Giemsa stained smear.

[13] = system: β-hematin crystal formation; experiment: β-hematin inhibition experiment; type: biochemical; settings: 100 μM hemin, 16 h at 37° C., up to 200 μM compound
Procedure: CQ and other aminoquinolines are known to fight against the malaria parasites by blocking hematin biocrystallization (hemozoin formation) through π-π stacking between the aminoquinoline scaffold and the heme. As a result, the accumulated toxic heme causes the parasite death by introducing oxidative membrane damage. β-hematin inhibition experiments were performed to determine possible mode of actions of arylvinylquinolines. FIG. 5A is an example according to various embodiments illustrating images of β-hematin crystals after incubation of 100 μM hemin, propionate buffer, phosphatidylcholine and, several concentrations of compound for 16 h at 37° C. […] In FIGS. 5A and 5B, the data are mean±SEM.

[14] = system: CQ-resistant (Dd2) strain of P. falciparum; settings: value reported from another study; cited from earlier work
[15] = Plasmodium falciparum, DD2, Table 6A, unit not given (text gives nM), footnote calls it IC50, read-out: Antiplasmodium activity Dd2 (converted)
[16] = Plasmodium falciparum, CQ-resistant (Dd2) strain, 72 h incubation, read-out: EC50 (nmol)
[17] = Plasmodium falciparum, Dd2 strain, read-out: EC50

For `CCN(CC)CCCC(C)Nc1cc(/C=C/c2ccc([N+](=O)[O-])cc2)nc2ccc(OC)cc12` (centres unmarked) [Compound according to Formula 1, reference compound], the “RI, resistance index = [IC50 (Dd2)/IC50 (3D7)]” value [1] was 0.6, the EC50 [1, 15] was 67 ± 8 nM and the EC50 [1, 16] was 67 ± 8 nM. For the same compound, the EC50 [1, 17] was 67 ± 8 nM, the “mice cured of malaria infection” value ([2]; 100 mg/kg twice daily po, previous study) was 4/5 and the “in vivo efficacy (efficacious dose)” value ([2]; twice daily, po) was 100 mg/kg. The EC50 [3] was 119 ± 3 nM, the “% remaining after 60 min” value [4] was 47.8^a % and the “Projected t1/2 (min)” value [4] was 56.2^a min. For the same compound, the “SI, selectivity index = [IC50 (HepG2)/IC50 (Dd2)]” value (“SI, selectivity index =” for short) (HepG2) was 193, the “SI, selectivity index =” value (HepG2; listed as Compd. of Formula 1) was 192 and the IC50 [5] was 12920 ± 70.1 nM. The “Projected t1/2” value [6] was 0.692 h, the “Clint” value [6] was 33.4 µL/min/mg and the “% remaining after 60 min” value [6] was 36.7%.
In the case of `CN(C)CCNc1cc(/C=C/c2ccc(C(F)(F)F)cc2)nc2ccc(Cl)cc12` [Compound 24], the “RI, resistance index = [IC50 (Dd2)/IC50 (3D7)]” value [1] is reported as 0.6, the EC50 [1, 15] is reported as 10.9 ± 1.9 nM and the EC50 [1, 16] is reported as 10.9 ± 1.9 nM. It also gave an IC50 ([1]; Plasmodium falciparum, Dd2 strain) of at most 15 nM, an EC50 [1, 17] of at most 15 nM and an IC50 ([7]; 3D7, read-out: Early stage IC50 (nM)) of 472 ± 18.4 nM. The EC50 ([7]; 3D7, read-out: Pf Gametocyte EC50 (early stage)) was 472 ± 18.4 nM, the EC50 [3] was 16.8 ± 0.8 nM and the “SI, selectivity index =” value (HepG2) was 1031. For the same compound, the IC50 [5] was 11200 ± 1860 nM, the “mice with 100% reduction of parasitemia” value ([8]; 25 mg/kg, po) was 3/4 and the “mice with 100% reduction of parasitemia” value ([8]; 100 mg/kg, p.o.) was 5/5. For the same compound, the “tolerability / signs of toxicity” value ([8]; infected mice, 25 and 100 mg/kg p.o.) was “without apparent signs of toxicity”, the “stage-specific inhibition of P. falciparum growth” value [9] was “blocked at the trophozoite stage” and the “Projected t1/2” value [6] was 1.737 h. For the same compound, the “Clint” value [6] was 13.3 µL/min/mg, the “% remaining after 60 min” value [6] was 67.1% and the “in vivo efficacy (efficacious dose)” value [10] was 25 mg/kg. For the same compound, the IC50 ([11]; late stage gametocytes, means and SEMs of three experiments) was 394 ± 99.4 nM, the EC50 ([11]; read-out: Pf Gametocyte EC50 (late stage)) was 394 ± 99.4 nM and the “rate of killing (parasitemia after exposure and wash-out)” value [12] was “remarkable reduction in parasitemias”. For the same compound, the “inhibitory activity towards β-hematin formation” value [13] was “weaker inhibitory activity; also recorded: very low activity”.
For `C[C@@H]1CC[C@H]2[C@@H](C)C(=O)O[C@@H]3O[C@@]4(C)CC[C@@H]1[C@]32OO4` [Artemisinin], the EC50 [14] is given as 28 ± 6 nM.
